Legend:
LPA GPCRs = experiment: Ca2+ mobilization assay, overall profile across LPA GPCRs; assay type: cell-based, human; conditions: across LPA1-4
Protocol: After incubating the cells with Fura-2 AM, the cells were rinsed with Krebs buffer and changes in the intracellular Ca^2+ concentration were monitored by determining the ratio of emitted light intensities at 520 nm in response to excitation at 340 and 380 nm using FLEXstation II (Molecular Devices, Sunnyvale, Calif.). Each well was monitored for 80-120 sec. For testing agonist activity of the compounds, the test compounds were added automatically after 15 sec of baseline measurement. To determine antagonist properties, varying concentrations of the compounds were mixed with a constant concentration of LPA and responses were monitored. Each test was performed in quadruplicate. EC50, IC50, and Ki values were calculated by fitting a sigmoid function to data points with the nonlinear curve-fitting feature of KaleidaGraph (Synergy Software, Essex Junction, Vt.).
Receptor activation using Ca^2+ mobilization assay. The assay for mobilization of intracellular Ca^2+ was performed as described. […] Using a FLEXStation (Molecular Devices, Sunnyvale, Calif.), changes in intracellular Ca^2+ concentration were monitored. Ligand-induced changes in fluorescence were monitored for 80-120 seconds. Ca^2+ transients were quantified automatically by calculating the difference between maximum and baseline ratio values for each sample. […] EC50, IC50, and Ki values were calculated as described. […]

HCT 116 cells = experiment: HCT 116 wound-healing migration assay; assay type: cell-based; conditions: 20 μM; 0, 16, 24 and 48 hours
Protocol: Effects of BrP-LPA analogs on HCT 116 migration. HCT 116 (2×10^5 per well) were plated in a six-well plate. When the cells were 100% confluent, the cells were treated with Mitomycin C (Sigma, MO, USA) 10 μg/ml for 2 hours, and then the monolayer was scratched using a 200 μl pipette tip. Medium and nonadherent cells were aspirated, the adherent cells were washed once, and new medium containing various concentrations of the pure diastereomers 1a and 1b, and the mixed diastereomers 1 (2 μM, 10 μM, 20 μM) was added (FIG. 13). A photograph was taken at the marked field (n=4) at 0, 16, 24 and 48 hours (FIG. 14). Wound closure was expressed as a percentage of the initial wound area, which was quantified using NIH ImageJ software.

Row | Structure (SMILES) | overall LPA GPCR ligand profile (LPA GPCRs) | HCT 116 cell migration (HCT 116 cells)
1 | CCCCCCCCCCCCCCCC(=O)OC[C@@H](O)C[C@@H](Br)P(=O)(O)O [Compound 1a] | pan-antagonist | –
2 | CCCCCCCCCCCCCCCC(=O)OC[C@@H](O)C[C@H](Br)P(=O)(O)O [Compound 1b] | – | greatest inhibition
